According to ChEMBL document CHEMBL4152253, “New developments in non-quinolone-based antibiotics for the inhibiton of bacterial gyrase and topoisomerase IV” (Eur J Med Chem, 2018):

Legend:
DNA gyrase subunit B = DNA gyrase subunit B (Staphylococcus aureus, UniProt P0A0K8); assay: Inhibition of Staphylococcus aureus GyrB
DNA gyrase = DNA gyrase (Staphylococcus aureus, UniProt P0A0K8+P20831); assay: Inhibition of Staphylococcus aureus DNA gyrase; type: protein-complex assay

IC50 (DNA gyrase subunit B) | IC50 (DNA gyrase) | SMILES
0.009 µM |  | C=C1CC[C@@H](O[C@H]2C[C@@](O)([C@H](C)NC(=O)c3[nH]c(C)c(Cl)c3Cl)[C@H](O)[C@@H](C)O2)[C@@H]2C=C[C@H](C)C(/C(O)=C3\C(=O)[C@H](C(C)C)N([C@H]4O[C@H](C)[C@H](OC(N)=O)[C@H](OC(C)=O)[C@@H]4OC)C3=O)[C@@H]12 (some centres not stated) [KIBDELOMYCIN]
 | 15 µM | Cc1occc1C(=O)NNC(=S)NC(=O)c1ccccc1
